According to ChEMBL document CHEMBL4138296, “Nonacidic Chemotype Possessing N-Acylated Piperidine Moiety as Potent Farnesoid X Receptor (FXR) Antagonists” (ACS Med Chem Lett, 2018):
Activity calls are given as the source filed them. No cut-off for these calls is given here.

What was measured:
Bile acid receptor [1] = target: T1, Bile acid receptor (Homo sapiens, UniProt Q96RI1); assay: Antagonist activity at GST-tagged FXR LBD (unknown origin) assessed as inhibition of GW4064-induced fluorecein-labeled SRC2-2 coactivator recruitment by Lanthascreen TR-FRET assay
T1 sequence (Q96RI1 whole entry): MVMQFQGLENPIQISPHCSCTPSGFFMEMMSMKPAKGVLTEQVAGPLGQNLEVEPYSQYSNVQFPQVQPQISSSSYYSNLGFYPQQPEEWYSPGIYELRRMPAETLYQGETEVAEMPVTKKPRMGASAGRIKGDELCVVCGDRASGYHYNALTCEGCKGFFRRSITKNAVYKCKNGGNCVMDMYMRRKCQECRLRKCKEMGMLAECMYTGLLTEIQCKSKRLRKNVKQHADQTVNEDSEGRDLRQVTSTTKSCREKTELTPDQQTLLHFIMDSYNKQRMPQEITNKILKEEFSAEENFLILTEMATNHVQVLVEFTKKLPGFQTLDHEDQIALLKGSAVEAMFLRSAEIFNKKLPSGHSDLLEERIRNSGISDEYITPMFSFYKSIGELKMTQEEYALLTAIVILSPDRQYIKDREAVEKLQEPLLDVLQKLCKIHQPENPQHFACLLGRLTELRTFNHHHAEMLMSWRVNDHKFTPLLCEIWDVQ

Bile acid receptor [2] = target: T1, Bile acid receptor; assay: Antagonist activity at human FXR expressed in Hep3B cells assessed as inhibition of CDCA-induced FXR response element driven luciferase activity after 24 hrs; assay type: cell-based
Hep 3B2 = assay: Cytotoxicity against human Hep3B cells assessed as reduction in cell viability by MTT assay; assay type: functional, cell-based
3T3-L1 [3] = assay: Antiadipogenic activity in mouse 3T3L1 cells assessed as reduction in intracellular lipid droplets at 10 uM after 6 days by Oil Red O staining based assay; assay type: functional, cell-based
3T3-L1 [4] = assay: Antiadipogenic activity in mouse 3T3L1 cells assessed as inhibition of CDCA-induced intracellular lipid droplets after 6 days by Oil Red O staining based assay; assay type: functional, cell-based

| Structure (SMILES) | IC50 (Bile acid receptor [1]) | IC50 (Bile acid receptor [2]) | IC50 (Hep 3B2) | Activity (3T3-L1 [3]) | inhibition (3T3-L1 [4]) |
| --- | --- | --- | --- | --- | --- |
| CC(=O)N1CCC(C[C@@H](c2nc3ccc(C)cc3n2C)N2C(=O)CN(c3ccc(Oc4ccccc4)cc3)C2=O)CC1 | 1.3 µM | 0.2 nM | 17.2 µM |  |  |
| Cc1ccc2nc([C@H](CC3CCN(C(=O)C4CCCC4)CC3)N3C(=O)CN(c4ccc(Oc5ccccc5)cc4)C3=O)n(C)c2c1 | 0.03 µM | 0.006 nM | > 100 µM |  |  |
| CC(=O)N1CCC(C[C@@H](c2nc3ccc(Cl)cc3n2C)N2C(=O)CN(c3ccc(Oc4ccccc4)cc3)C2=O)CC1 | 3.5 µM | 0.8 nM | > 100 µM |  |  |
| CC(C)C(=O)N1CCC(C[C@@H](c2nc3ccc(Cl)cc3n2C)N2C(=O)CN(c3ccc(Oc4ccccc4)cc3)C2=O)CC1 | 0.13 µM | 0.05 nM | > 100 µM |  |  |
| Cc1ccc2nc([C@H](CC3CCN(CC(C)C)CC3)N3C(=O)CN(c4ccc(Oc5ccccc5)cc4)C3=O)n(C)c2c1 | 16.4 µM | 17400 nM | 6.9 µM |  |  |
| CC(=O)N1CCC(C[C@@H](c2nc3cc(F)ccc3n2C)N2C(=O)CN(c3ccc(Oc4ccccc4)cc3)C2=O)CC1 | 8.3 µM | 1 nM | > 100 µM |  |  |
| C/C=C1/C(=O)C[C@H]2[C@@H]3CCC4=CC(=O)CC[C@]4(C)[C@H]3CC[C@]12C |  |  |  | Active | Dose-dependent effect |

Continued by falling IC50 (Bile acid receptor [1]), values first:

| IC50 (Bile acid receptor [1]) | IC50 (Bile acid receptor [2]) | Structure (SMILES) | IC50 (Hep 3B2) | Activity (3T3-L1 [3]) | inhibition (3T3-L1 [4]) |
| --- | --- | --- | --- | --- | --- |
| 64 µM | 4510 nM | Cc1ccc2nc([C@H](CC3CCNCC3)N3C(=O)CN(c4ccc(Oc5ccccc5)cc4)C3=O)n(C)c2c1 | 16.7 µM |  |  |
| 0.74 µM | 0.002 nM | CC(=O)N1CCC(C[C@@H](c2nc3ccccc3n2C)N2C(=O)CN(c3ccc(Oc4ccccc4)cc3)C2=O)CC1 | 32.1 µM |  |  |
| 0.34 µM | 0.06 nM | CC(C)C(=O)N1CCC(C[C@@H](c2nc3cc(F)ccc3n2C)N2C(=O)CN(c3ccc(Oc4ccccc4)cc3)C2=O)CC1 | > 100 µM |  |  |
| 0.038 µM | < 0.001 nM | CC(C)C(=O)N1CCC(C[C@@H](c2nc3ccccc3n2C)N2C(=O)CN(c3ccc(Oc4ccccc4)cc3)C2=O)CC1 | > 100 µM |  |  |
